# Assay results from ChEMBL document CHEMBL4017441, “Mitigating the inhibition of human bile salt export pump by drugs: opportunities provided by physicochemical property modulation, in silico modeling, and structural modification” (Drug Metab Dispos, 2012).
# Molecular target: Bile salt export pump (Homo sapiens, UniProt O95342)
# Format: ADME
row,SMILES,IC50 [µM]
1,O=S(=O)(CCOCCc1ccccc1)NCCNCCc1ccc(O)c2nc(O)sc12,35.7
2,CNC(=O)Oc1ccc2c(c1)C1(C)CCN(C)C1N2C (centres undefined),> 1000
3,C[C@@H](COc1ccc(N2CCN(c3ccncc3)CC2)cc1)CC(=O)O,> 1000
4,O=C(O[C@H]1C[N+]2(CCCOc3ccccc3)CCC1CC2)C(O)(c1cccs1)c1cccs1,127
5,CCCc1c2nc(C(=O)O)cc(C(F)(F)F)c2cc2c(=O)cc(C(=O)O)oc12,365
6,CCCc1c2nc(C(=O)O)cc(O)c2cc2c(=O)cc(C(=O)O)oc12,> 1000
7,CCCc1c2nc(C(=O)O)cc(N(C)C(C)=O)c2cc2c(=O)cc(C(=O)O)oc12,> 1000
8,CN(C)C(=O)c1ccc(S(=O)(=O)c2ccc(NC(=O)[C@@](C)(O)C(F)(F)F)c(Cl)c2)cc1,< 12.8
9,c1ccc2[nH]c(-c3nc4ccccc4[nH]3)nc2c1,31.3
10,C=CC1CN2CCC1CC2C(O)c1ccnc2ccccc12 (centres undefined),> 1000
11,CC1=C(CC(=O)O)c2cc(F)ccc2/C1=C\c1ccc([S+](C)[O-])cc1 (centres undefined),63.7
12,CCOC(=O)[C@H](CCc1ccccc1)N[C@@H](C)C(=O)N1Cc2ccccc2C[C@H]1C(=O)O,15.5
13,COC(=O)[C@H](Cc1ccccc1)NC(=O)[C@@H](N)CC(=O)O,> 1000
14,CCS(=O)(=O)c1ccc(-c2cc(Cl)ccc2OCC(=O)O)c(F)c1,168
15,CCS[C@]1(SC)CC[C@H]2[C@@H]3CCC4=CC(=O)C=C[C@]4(C)[C@@]3(F)[C@@H](O)C[C@@]21C,< 10
16,CCCc1nn(C)c2c(=O)[nH]c(-c3cc(S(=O)(=O)N4CCN(C)CC4)ccc3OCC)nc12,16.4
17,Cc1ccc2c(c1)c(-c1ccnc3c(C)cccc13)c(C)n2CC(=O)O,< 10
18,CCCCCC(O)C1C(=O)OC(C)C(O)/C=C/C=C/C=C/C=C/C=C(/C)C(O)CC(O)CC(O)CC(O)CC(O)CC(O)CC1O (centres undefined),164
19,CC(=O)NS(=O)(=O)c1ccc(NC(=O)c2ccccc2C(=O)O)cc1,> 1000
20,CN1CCN(c2ccccc2/C=C2/SCCN(c3ccc(Cl)c(Cl)c3)C2=O)CC1,< 10
21,Cc1ccc2c(c1)c(-c1ccnc3c(C(F)(F)F)cccc13)c(C)n2CC(=O)O,< 10
22,CNC[C@H](O)Cc1ccc(Cl)c(C(=O)NCC23CC4CC(CC(C4)C2)C3)c1,133
23,Cc1cc(-c2ccc(N3C[C@H](Cn4ccnn4)OC3=O)cc2F)on1,> 1000
24,Nc1ccccc1C(=O)NCC(=O)O,> 1000

row,SMILES,IC50 [µM]
1,COc1ccccc1N1CCN(CCCNc2cc(=O)n(C)c(=O)n2C)CC1,< 11.3
2,Cc1ccc(OC(C)(C)[C@H]2OC[C@@H](C/C=C\CCC(=O)O)[C@@H](c3cccnc3)O2)c([N+](=O)[O-])c1,< 10
3,Nc1ccc([As](=O)(O)O)cc1,> 1000
4,O=c1[nH]c2c(O)ccc(CCNCCCS(=O)(=O)CCCOCCc3ccccc3)c2s1,32.4
5,CCCSc1nc(N)c2ncn([C@@H]3O[C@H](COP(=O)(O)OP(=O)(O)C(Cl)(Cl)P(=O)(O)O)[C@@H](O)[C@H]3O)c2n1,> 1000
6,CO[C@H]1/C=C/O[C@@]2(C)Oc3c(C)c(O)c4c(O)c(c(/C=N/N5CCN(C)CC5)c(O)c4c3C2=O)NC(=O)/C(C)=C\C=C\[C@H](C)[C@H](O)[C@@H](C)[C@@H](O)[C@H](C)[C@H](OC(C)=O)[C@H]1C,< 10
7,CO[C@H]1/C=C/O[C@@]2(C)Oc3c(C)c(O)c4c(c3C2=O)C2=NC3(CCN(CC(C)C)CC3)NC2=C(NC(=O)/C(C)=C\C=C\[C@H](C)[C@H](O)[C@@H](C)[C@@H](O)[C@H](C)[C@H](OC(C)=O)[C@H]1C)C4=O,< 10
8,CN[C@]1(C)[C@H]2CC[C@H](C2)C1(C)C,> 1000
9,NC(=O)CN1CCCC1=O,> 1000
10,Cc1n[nH]c(C)c1Cc1sc2c(c1C(=O)N1C[C@H](O)CO1)c(=O)n(C)c(=O)n2CC(C)C,248
11,Cc1ccc2c(c1)c(-c1ccnc3c(Cl)cccc13)c(C)n2CC(=O)O,< 10
12,COc1ccc2c(c1OC)C(=O)OC2C1c2c(cc3c(c2OC)OCO3)CCN1C (centres undefined),23.9
13,CCCCCC(C)(O)/C=C/[C@@H]1[C@@H](C/C=C\CCCC(=O)O)[C@@H](O)C[C@H]1O (some centres undefined),329
14,COc1nc(C)cnc1NS(=O)(=O)c1cccnc1-c1ccc(CC(C)C)cc1,19.5
15,CS(=O)(=O)Oc1ccc(OCCc2ccc(C[C@H](SCCc3ccc(O)cc3)C(=O)O)cc2)cc1,< 13.4
16,CCCc1ncc(-c2ccnc(Nc3ccc(S(=O)(=O)NCCOC)cc3)n2)n1C(C)C,< 10
17,Cc1ccc(NC(=O)c2cccc3c2oc2ccccc23)cc1NC(=O)c1cccc(OC2CCN(C(C)C)CC2)c1,< 10
18,NS(=O)(=O)c1ccc(-c2ccc(OC[C@H](O)CCc3cccnc3)cc2)s1,> 1000
19,O=CN(O)C(CCCc1ncccn1)CS(=O)(=O)N1CCN(c2ccc(F)cc2)CC1 (centres undefined),< 16.4
20,CC1(C)COC(=O)C1O (centres undefined),> 1000
21,C[C@H](Oc1ccc(C(F)(F)F)cc1-c1ccc(S(C)(=O)=O)c(C(F)(F)F)c1)C(=O)O,35.8
22,COc1ccnc(-c2cccc(C)c2[S+]([O-])c2nc3ccccc3[nH]2)c1 (centres undefined),< 10
23,CC(=O)Nc1ccccc1OC[C@@H](O)CNC1CCN(Cc2ccc(Cl)cc2)CC1,55.6
24,COc1ccc(Nc2ccn(-c3ccccc3)n2)cc1,23

row,SMILES,IC50 [µM]
1,CC1=C(C(=O)O)N2C(=O)[C@@H](NC(=O)C(N)C3=CCC=CC3)C2SC1 (some centres undefined),> 1000
2,O=CN(O)C(CCc1ncccn1)CS(=O)(=O)N1CCN(c2ccc(Cl)cn2)CC1 (centres undefined),< 10
3,CCC(=O)OC(OP(=O)(CCCCc1ccccc1)CC(=O)N1CC(C2CCCCC2)CC1C(=O)O)C(C)C (centres undefined),< 13.3
4,CCOCCNS(=O)(=O)c1ccc(Nc2nccc(-c3cnc(C)n3C(C)C)n2)cc1,< 10
5,CC(=O)Nc1ccccc1OC[C@@](C)(O)CNC1CCN(Cc2ccc(Cl)cc2)CC1,71.5
6,CC[C@H]1OC(=O)[C@H](C)[C@H](O[C@H]2C[C@@](C)(OC)[C@@H](O)[C@H](C)O2)[C@H](C)[C@@H](O[C@@H]2O[C@H](C)C[C@H](N(C)C)[C@H]2O)[C@](C)(O)C[C@@H](C)CN(C)[C@H](C)[C@H](O)[C@]1(C)O,> 1000
7,O=CN(O)[C@@H](CCCc1ncccn1)CS(=O)(=O)N1CCN(c2ccc(Cl)cn2)CC1,< 10
8,Cc1ccc(NC(=O)c2cccc3c2oc2ccccc23)cc1NC(=O)c1cccc(CN2CCN(C)CC2)c1,< 10
9,C/C(=N\OC(C)(C)C(=O)O)c1csc(N)n1,> 1000
10,CC(=O)OCC(=O)C1(O)C(C)CC2C3CC(F)C4=CC(=O)C=CC4(C)C3C(O)CC21C (centres undefined),33.6
11,Cc1ccc(NC(=O)c2cccc(-c3ccco3)c2)cc1-n1cnc2ccc(N3CCN(C)CC3)cc2c1=O,< 10
12,CN[C@H]1C(O[C@H]2C(OC3C(O)C(O)C(NC(=N)N)C(O)C3NC(=N)N)OC(C)[C@]2(O)C=O)O[C@H](CO)[C@@H](O)[C@@H]1O (some centres undefined),> 1000
13,C[C@H](CC(=O)Nc1c(Cl)ccc2nc(N3CC[C@H](N)C3)ccc12)c1ccccc1,< 27
14,Cc1ccc(CCCN[C@H](C)CO)cc1C(=O)NCC12CC3CC(CC(C3)C1)C2,65.6
15,COc1ccc2c(c1)CC[C@@H]1[C@@H]2CC[C@@]2(C)[C@H]1CC[C@@]2(O)C#N,< 10
16,Nc1ccc(CN2C(=O)C(Nc3ccc(N4CCOCC4)cc3)=C(c3ccccc3)C2=O)cn1,< 10
17,CCCc1ncc(-c2ccnc(Nc3ccc(S(=O)(=O)NCCOC)cc3)n2)n1CC,< 10
18,Cc1cccc(C)c1NC(=O)[C@H]1CCCCN1C,> 1000
19,CC[C@H]1OC(=O)[C@H](C)[C@H](O[C@H]2C[C@@](C)(OC)[C@@H](O)[C@H](C)O2)[C@@H](C)[C@@H](O[C@@H]2O[C@H](C)C[C@H](N(C)C)[C@H]2O)[C@@](C)(OC)C[C@@H](C)C(=O)[C@H](C)[C@H](O)[C@]1(C)O,< 12.9
20,O=C(O)c1cc2sccc2n1Cc1ccc(Cl)c(Cl)c1,13.7
21,O=C(c1ccc(-c2ccncc2)cc1)N1CCN(S(=O)(=O)c2cc3cc(Cl)ccc3[nH]2)CC1,< 10
22,O=CN(O)C(CCc1ccccc1)CS(=O)(=O)N1CCN(c2ccc(F)cc2)CC1 (centres undefined),< 10
23,CC(CCC(=O)O)C1CCC2C3C(=O)CC4CC(=O)CCC4(C)C3CC(=O)C12C (centres undefined),202
24,Cc1n[nH]c(C)c1Cc1sc2c(c1C(=O)N1C[C@H](O)CO1)c(=O)n(C)c(=O)n2C(C)C,703

row,SMILES,IC50 [µM]
1,O=CN(O)C(CCCc1ncccn1)CS(=O)(=O)N1CCC(Oc2ccc(Cl)cn2)CC1 (centres undefined),< 10
2,N[C@H]1CCN(c2ccc3c(C(=O)NCC4CCCCC4)c(Cl)ccc3n2)C1,107
3,CC(=O)Oc1c(C)cc(Nc2ccn(-c3ccccc3)n2)cc1C,< 10
4,CN(C)c1ncnc2c1ncn2C1OC(CO)C(N)C1O (centres undefined),> 1000
5,O=C(O)c1cc2cc(O)ccc2n1Cc1ccc(Cl)c(C(F)(F)F)c1,18.5
6,COc1ccc(CC(N)C(=O)N[C@@H]2[C@@H](CO)OC(n3cnc4c(N(C)C)ncnc43)[C@@H]2O)cc1 (some centres undefined),> 787
7,Cc1cc2cc(C(=O)NC3Cc4ccccc4N(C[C@@H](O)CO)C3=O)[nH]c2s1 (some centres undefined),< 11
8,Cc1cc(CCC(=O)O)cc(C)c1-c1nc2ccc(-c3nnc(Nc4cccc(Cl)c4)o3)cc2[nH]1,< 10
9,O=C(NO)C(CCc1ccccc1)CS(=O)(=O)N1CCN(c2ccc(F)cc2)CC1 (centres undefined),< 10
10,Bc1ccc(S(=O)(=O)N2CCN(C(=O)N3CCN(c4cc(C)ncn4)CC3)CC2)cc1,< 10
11,O=C(O)c1cc2c(OCCCO)cccc2n1Cc1ccc(Cl)c(Cl)c1,< 14
12,CCc1cccc(C)c1CNC1=C2NC(C)=C(C)N2CC(C(N)=O)=C1,< 10
13,CCN(CC)C(=O)c1ccc(C(=C2CCNCC2)c2ccccc2)cc1,106
14,CC1=C(C/C=C(\C)CCCC(C)CCCC(C)CCCC(C)C)C(=O)c2ccccc2C1=O (centres undefined),> 1000
15,CC(C)[C@H](O)C(=O)N[C@@H](C)C(=O)N[C@@H]1C(=O)N(C)CCc2ccccc21,472
16,Cc1ccc(C(=O)N2CC3CNCC(C2)O3)cc1NC(=O)CC12CC3CC(CC(C3)C1)C2,59.5
17,O=C(NCCc1ccccc1Cl)c1cc(-n2ncc(=O)[nH]c2=O)ccc1Cl,34.4
18,COc1cccc(N2C(N)=NC(N)=NC23CCCCC3)c1,> 1000
19,CCCSc1nc(N)c2ncn([C@@H]3O[C@H](CO)[C@@H](O)[C@H]3O)c2n1,> 1000
20,CCCCCCCCCCCCc1ccc(S(=O)(=O)Nc2nncs2)cc1,21
21,N=c1nc(N2CCCCC2)cc(N)n1O,> 1000
22,CC(C)(C)C(=O)Oc1ccc(S(=O)(=O)Nc2ccccc2C(=O)NCC(=O)O)cc1,142
